Text: In one or more embodiments, the foamable composition includes a potent solvent, in addition to or in place of one of the hydrophobic solvents, polar solvents or emollients of the composition. A potent solvent is a solvent other than mineral oil that solubilizes a specific active agent substantially better than a hydrocarbon solvent such as mineral oil or petrolatum.
With `CCCCC(=O)O[C@]1(C(=O)CO)[C@@H](C)C[C@H]2[C@@H]3CCC4=CC(=O)C=C[C@]4(C)[C@@]3(F)[C@@H](O)C[C@@]21C` [Betamethasone valerate] the solubility in glycofurol was “more than 1%” and the “solubility in mineral oil” value was less than 0.01%.
With `CCCC(=O)O[C@]1(C(=O)CO)CC[C@H]2[C@@H]3CCC4=CC(=O)CC[C@]4(C)[C@H]3[C@@H](O)C[C@@]21C` [Hydrocortisone butyrate] the solubility in glycofurol was “more than 1%” and the “solubility in mineral oil” value was less than 0.01%.
In the case of `CC(=O)N1CCN(c2ccc(OCC3COC(Cn4ccnc4)(c4ccc(Cl)cc4Cl)O3)cc2)CC1` (centres unmarked) [Ketoconazole], the “solubility in dimethyl isosorbide” value is reported as “more than 1%”, the solubility in glycofurol is reported as “more than 1%” and the “solubility in mineral oil” value is reported as less than 0.01%. The “solubility in propylene glycol” value was “more than 1%”.
With `Cc1cnc(NC(=O)C2=C(O)c3ccccc3S(=O)(=O)N2C)s1` [Meloxicam] the “solubility in mineral oil” value was less than 0.001%.
With `Cc1ncc([N+](=O)[O-])n1CCO` [Metronidazole] the “solubility in dimethyl isosorbide” value was “more than 1%” and the “solubility in mineral oil” value was less than 0.01%.
In the case of `C/C(=C\C(=O)OCCCCCCCCC(=O)O)C[C@@H]1OC[C@H](C[C@@H]2O[C@H]2[C@@H](C)[C@H](C)O)[C@@H](O)[C@H]1O` [Mupirocin], the “solubility in dimethyl isosorbide” value is reported as “more than 1%”, the solubility in glycofurol is reported as “more than 1%” and the “solubility in mineral oil” value is reported as less than 0.01%. The “solubility in polyethylene glycol 400 (PEG 400)” value was “more than 1%” and the “solubility in propylene glycol” value was “more than 1%”.
With `CC(=O)[C@H]1CC[C@H]2[C@@H]3CCC4=CC(=O)CC[C@]4(C)[C@H]3CC[C@]12C` [Progesterone] the “solubility in mineral oil” value was less than 0.001%.

— patent US20090175799A1, “COLORED OR COLORABLE TOPICAL COMPOSITION FOAM” (priority 2006, published 2009)
